≈ marks a conversion by molar mass, not a printed value. Read-outs that look alike come from different tables or passages of the source.
Legend:
Klebsiella sp. 8085 = test: MIC, agar serial dilution (Iso-Sensitest agar), Klebsiella sp. 8085; type: cell-based; conditions: 37° C., about 20 hours
Method: (§1) The minimum inhibitory concentrations (MIC) were determined on Iso-Sensitest agar (Oxoid) using a serial dilution method. For each substance to be tested, a series of agar plates was prepared, which plates contained diminishing concentrations of the active compound produced in each case by a doubling dilution. The agar plates were inoculated using a Multipoint Inoculator (Denley). For the inoculation, overnight cultures of the pathogens were used which had been diluted beforehand such that each inoculation point contained approximately 10^4 colony-forming particles. The inoculated agar plates were incubated at 37° C. and the growth of organisms recorded after about 20 hours. The MIC value (μg/ml) indicates the lowest concentration of active compound at which no growth was visible to the naked eye. […] Example 8 from European Patent Application 520 277): […]

[1] = system: Staphylococcus aureus ICB 25701; test: MIC, agar serial dilution (Iso-Sensitest agar), Staphylococcus aureus ICB 25701; type: cell-based; conditions: about 20 hours
Method: as §1

Morganella morganii 932 = test: MIC, agar serial dilution (Iso-Sensitest agar), Morganella morganii 932; type: cell-based; conditions: 37° C., about 20 hours
Method: as §1

Micrococcus luteus 9341 = test: MIC, agar serial dilution (Iso-Sensitest agar), Micrococcus luteus 9341; type: cell-based; conditions: 37° C., about 20 hours
Method: as §1

[2] = system: Staphylococcus aureus 133; test: MIC, agar serial dilution (Iso-Sensitest agar), Staphylococcus aureus 133; type: cell-based; conditions: 37° C., about 20 hours
Method: as §1

[3] = system: Enterococcus faecalis 27101; test: MIC, agar serial dilution (Iso-Sensitest agar), Enterococcus faecalis 27101; type: cell-based; conditions: 37° C., about 20 hours
Method: as §1

[4] = LD50 following intravenous administration to CFl mice (tolerance); type: in vivo; conditions: mouse, in vivo, iv
Method: (§2) The LD50 values listed in this table were determined following intravenous administration of the substances to CFl mice. The ID50 is understood to be the concentration of a substance at which the DNA synthesis in Chinese hamster ovary cells (CHO-KI) is inhibited by 50%. This value is determined following incubation of the corresponding substances in descending dilution steps for defined periods. For this purpose, the DNA synthesis in CHO-KI cells is determined in comparison to controls using fluorophotometric methods.

Escherichia coli Neumann = test: MIC, agar serial dilution (Iso-Sensitest agar), Escherichia coli Neumann; type: cell-based; conditions: 37° C., about 20 hours
Method: as §1

in vitro = type: cell-based, Chinese hamster; conditions: hamster, cho-k1 cells
Method: as §2

Providencia sp. 12012 = test: MIC, agar serial dilution (Iso-Sensitest agar), Providencia sp. 12012; type: cell-based; conditions: 37° C., about 20 hours
Method: as §1

CFl mice = test: LD50 following intravenous administration to CFl mice (tolerance); type: in vivo
Method: as §2

[5] = system: Chinese hamster ovary cells (CHO-KI); test: in vitro; type: cell-based; conditions: cho-k1 cells
Method: as §2

[6] = ICB25701, 37° C., read-out: MIC
[7] = Micrococcus luteus, 9341, 20 h, read-out: MIC
[8] = Escherichia coli, 20 h, read-out: MIC

Row | SMILES | MIC (Klebsiella sp. 8085; read-out: MIC) [µg/mL] | MIC [1, 6] [µg/mL] | MIC (Morganella morganii 932; read-out: MIC) [µg/mL] | MIC (Micrococcus luteus 9341; [7]) [µg/mL] | MIC ([2]; read-out: MIC) [µg/mL] | MIC ([3]; read-out: MIC) [µg/mL] | LD50 [4] [mg/kg] | MIC (Escherichia coli Neumann; [8]) [µg/mL] | IC50 (in vitro) [µg/mL] | MIC (Providencia sp. 12012; read-out: MIC) [µg/mL] | LD50 (CFl mice) [mg/kg] | MIC (Klebsiella sp. 8085) [µg/mL] | MIC ([1]; 37° C.) [µg/mL] | MIC (Morganella morganii 932) [µg/mL] | MIC (Micrococcus luteus 9341) [µg/mL] | MIC [2] [µg/mL] | MIC [3] [µg/mL] | MIC (Escherichia coli Neumann) [µg/mL] | ID50 (concentration at which DNA synthesis is inhibited by 50%) [5] [µg/mL] | MIC (Providencia sp. 12012) [µg/mL]
1 | CN1CCC2=C(C1)CN(c1c(F)cc3c(=O)c(C(=O)O)cn([C@@H]4C[C@@H]4F)c3c1F)C2 (relative stereo) [Example 1, 6,8-difluoro-1-(cis-2-fluorocyclopropyl)-1,4-dihydro-7-(5-methyl-2,3,4,5,6,7-hexahydro-1H-pyrrolo[3,4-c]pyridin-2-yl)-4-oxo-3-quinolinecarboxylic acid] | 0.06 (≈ 0.143 µM) | 0.5 (≈ 1.19 µM) | 0.03 (≈ 0.0715 µM) | 0.25 (≈ 0.596 µM) | 0.06 (≈ 0.143 µM) | 0.06 (≈ 0.143 µM) | 150 | ≤ 0.015 | 35 (≈ 83.5 µM) | 0.06 (≈ 0.143 µM) | – | – | – | – | – | – | – | – | – | –
2 | CN1CCC2=C(C1)CN(c1c(F)cc3c(=O)c(C(=O)O)cn([C@@H]4C[C@@H]4F)c3c1Cl)C2 (relative stereo) [Example 4, 8-chloro-6-fluoro-1-(cis-2-fluorocyclopropyl)-1,4-dihydro-7-(5-methyl-2,3,4,5,6,7-hexahydro-1H-pyrrolo[3,4-c]-pyridin-2-yl)-4-oxo-3-quinolinecarboxylic acid] | 0.06 (≈ 0.138 µM) | 0.25 (≈ 0.574 µM) | 0.06 (≈ 0.138 µM) | 0.125 (≈ 0.287 µM) | ≤ 0.015 | 0.06 (≈ 0.138 µM) | – | ≤ 0.015 | – | 0.06 (≈ 0.138 µM) | – | – | – | – | – | – | – | – | – | –
3 | CN1CCC2=C(C1)CN(c1c(F)cc3c(=O)c(C(=O)O)cn([C@@H]4C[C@@H]4F)c3c1F)C2 (single isomer, unassigned) [Example 2, (-)-6,8-difluoro-1-(cis-2-fluorocyclopropyl)-1,4-dihydro-7-(5-methyl-2,3,4,5,6,7-hexahydro-1H-pyrrolo[3,4-c]pyridin-2-yl)-4-oxo-3-quinolinecarboxylicacid] | 0.06 (≈ 0.143 µM) | 0.5 (≈ 1.19 µM) | 0.06 (≈ 0.143 µM) | 0.25 (≈ 0.596 µM) | 0.06 (≈ 0.143 µM) | 0.06 (≈ 0.143 µM) | – | 0.03 (≈ 0.0715 µM) | 40 (≈ 95.4 µM) | 0.06 (≈ 0.143 µM) | 200 | – | – | – | – | – | – | – | – | –
4 | CN1CCC2=C(C1)CN(c1c(F)cc3c(=O)c(C(=O)O)cn([C@@H]4C[C@@H]4F)c3c1F)C2 (single isomer, unassigned) [Example 3, (+)-6,8-difluoro-1-(cis-2-fluorocyclopropyl)-1,4-dihydro-7-(5-methyl-2,3,4,5,6,7-hexahydro-1H-pyrrolo[3,4-c]pyridin-2-yl)-4-oxo-3-quinolinecarboxylicacid] | – | – | – | – | – | – | – | – | – | – | 50 | 0.06 (≈ 0.143 µM) | 0.5 (≈ 1.19 µM) | 0.06 (≈ 0.143 µM) | 0.125 (≈ 0.298 µM) | 0.06 (≈ 0.143 µM) | 0.06 (≈ 0.143 µM) | ≤ 0.015 | 40 (≈ 95.4 µM) | 0.06 (≈ 0.143 µM)
5 | CN1CCC2=C(C1)CN(c1c(F)cc3c(=O)c(C(=O)O)cn(C4CC4)c3c1F)C2.Cl [Ref. 1, 1-cyclopropyl-6,8-difluoro-1,4-dihydro-7-(5-methyl-2,3,4,5,6,7-hexahydro-1H-pyrrolo[3,4-c]pyridin-2-yl)-4-oxo-3-quinolinecarboxylic acid hydrochloride, reference compound] | 0.06 | 1 | 0.03 | 0.5 | 0.6 | 0.125 | 50 | ≤ 0.015 | 1 | 0.125 | – | – | – | – | – | – | – | – | – | –
6 | CN1CCC2=C(C1)CN(c1c(F)cc3c(=O)c(C(=O)O)cn(C4CC4)c3c1Cl)C2 [Ref. 2, 8-chloro-1-cyclopropyl-6-fluoro-1,4-dihydro-7-(5-methyl-2,3,4,5,6,7-hexahydro-1H-pyrrolo[3,4-c]pyridin-2-yl)-4-oxo-3-quino-1-linecarboxylic acid, reference compound] | 0.06 (≈ 0.144 µM) | 0.5 (≈ 1.2 µM) | 0.06 (≈ 0.144 µM) | 0.25 (≈ 0.598 µM) | 0.03 (≈ 0.0718 µM) | 0.06 (≈ 0.144 µM) | 50 | 0.03 (≈ 0.0718 µM) | 16 (≈ 38.3 µM) | 0.125 (≈ 0.299 µM) | – | – | – | – | – | – | – | – | – | –
